According to PubChem BioAssay AID651555 (The Scripps Research Institute Molecular Screening Center, 2012):
Activity calls are given as the source filed them.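 How the source made its calls: active means compounds whose half-maximal activation potency EC50 is 10 µM or stronger; inactive means the rest.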

Molecular target: Melanocortin receptor 4 (Homo sapiens) (UniProt P32245)
Assay: MC4R beta-arrestin agonist potency, late-stage follow-up, cell-based, luminescence, agonists (AID 651555)
Conditions: U2OS MC4R beta-arrestin recruitment, beta-gal luminescence

Melanocortin receptor 4 (Homo sapiens), sequence (P32245 whole entry, looked up): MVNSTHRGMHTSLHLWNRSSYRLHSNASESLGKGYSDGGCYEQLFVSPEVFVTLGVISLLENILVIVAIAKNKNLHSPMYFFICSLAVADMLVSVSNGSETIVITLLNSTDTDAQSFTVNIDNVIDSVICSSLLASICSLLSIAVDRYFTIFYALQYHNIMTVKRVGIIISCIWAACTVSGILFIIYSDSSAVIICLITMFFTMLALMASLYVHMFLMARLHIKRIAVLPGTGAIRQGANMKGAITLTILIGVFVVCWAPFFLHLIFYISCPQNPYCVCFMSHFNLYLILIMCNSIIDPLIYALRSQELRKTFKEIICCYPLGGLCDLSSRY

| Structure (SMILES) | EC50 |
| --- | --- |
| CCC1CCCCN1S(=O)(=O)c1ccc(NC(=O)c2nc(S(C)(=O)=O)ncc2Cl)cc1 (stereo not drawn) | > 50 µM (inactive) |
| CCC1CCCCN1S(=O)(=O)c1ccc(NC(=O)c2ccccc2)cc1 (stereo not drawn) | inactive |
| CC(=O)c1ccc(Nc2nc3ccc(C(=O)N(CCC(C)C)CCC(C)C)cc3n2CCCN2CCCCC2)cc1 | > 50 µM (inactive) |
| COc1ccc(N(C(C)=O)C(C(=O)NC2CCCC2)c2cccs2)cc1OC (stereo not drawn) | > 50 µM (inactive) |
| O=c1[nH]c2ccccc2n1C1CCN(CC(O)COc2ccc3ccccc3c2)CC1 (stereo not drawn) | > 50 µM (inactive) |
| CC1CCCCN1S(=O)(=O)c1ccc(NC(=O)c2nc(S(C)(=O)=O)ncc2Cl)cc1 (stereo not drawn) | > 50 µM (inactive) |
| CNC(=O)c1cc(Oc2ccc(NC(=O)CNc3ccc(Cl)c(C(F)(F)F)c3)cc2)ccn1 | > 50 µM (inactive) |
| CC(=O)Nc1cc(-c2ccc(N(C)C)cc2)cn2c(-c3ccc(F)cc3)cnc12 | > 50 µM (inactive) |
| CNC(=O)c1cc(Oc2ccc(NC(=O)Nc3ccc(Cl)c(C(F)(F)F)c3)cc2)ccn1 | > 50 µM (inactive) |
| COc1ccccc1C1(CCNC(C)c2cccs2)CCOC(C(C)C)C1 (stereo not drawn) | > 50 µM (inactive) |
| Cc1ccccc1CN1Cc2cnnn2-c2ccccc2C1C#N (stereo not drawn) | > 50 µM (inactive) |
| CC(=O)N(C)c1cc(-c2ccc(N(C)C)cc2)cn2c(-c3ccc(F)c(Cl)c3)cnc12 | > 50 µM (inactive) |
| CNC(=O)c1cc(Oc2ccc(NCC(=O)Nc3ccc(Cl)c(C(F)(F)F)c3)cc2)ccn1 | > 50 µM (inactive) |
| CCC1CCCCN1S(=O)(=O)c1ccc(NC(=O)c2cccc(S(C)(=O)=O)c2)cc1 (stereo not drawn) | > 50 µM (inactive) |
| C#CC(=O)N(c1ccc(OC)c(OC)c1)C(C(=O)NC1CCCC1)c1cccs1 (stereo not drawn) | > 50 µM (inactive) |
| CCOC(=O)C1(c2ccccc2)CCN(CC(O)COc2ccc3ccccc3c2)CC1 (stereo not drawn) | > 50 µM (inactive) |
| CCC1CCCCN1S(=O)(=O)c1ccc(NC(=O)c2ccnc(SC)n2)cc1 (stereo not drawn) | > 50 µM (inactive) |
| CC(=O)Nc1cc(-c2ccc(N(C)C)cc2)cn2c(-c3ccc(F)c(Cl)c3)cnc12 | > 50 µM (inactive) |
| CC(=O)Nc1cc(-c2ccc(N(C)C)cc2)cn2c(-c3ccc(F)c(F)c3)cnc12 | > 50 µM (inactive) |
| Cc1ccccc1OCC(O)CN1CCC(CN2C(=O)c3cccc4cccc(c34)C2=O)CC1 (stereo not drawn) | > 50 µM (inactive) |
| OC(COc1ccc2ccccc2c1)CN1CCC(Nc2nc3ccccc3o2)CC1 (stereo not drawn) | > 50 µM (inactive) |
| O=C1c2cccc3cccc(c23)C(=O)N1CC1CCN(CC(O)COc2ccccc2)CC1 (stereo not drawn) | > 50 µM (inactive) |
| O=C1c2cccc3cccc(c23)C(=O)N1CC1CCN(CC(O)COc2ccc3ccccc3c2)CC1 (stereo not drawn) | inactive |
